Data published in PMC3922815 (PLoS ONE, 2014).
Values joined by “and” are separate entries in the source; they are usually repeats but may differ in a detail not shown here. Equal values may be shown once. Read-outs that look alike come from different tables or passages of the source.

Assays:
human GABAA α2β2γ2 [1] = target: T1, human GABAA α2β2γ2 (Homo sapiens, UniProt P18507+P47869)
human GABAA α5β2γ2 [2] = target: T2, human GABAA α5β2γ2 (Homo sapiens, UniProt P18507+P31644); test: biochemical
[3] = target: native GABAA receptors from rat-brain homogenates
human GABAA α1β2γ2 [4] = target: T3, human GABAA α1β2γ2 (Homo sapiens, UniProt P14867+P18507); settings: for Binding affinity normalized to GABAA α2 (ratio of Ki values): Ki α1β2γ2 / Ki α2β2γ2
human GABAA α1β2γ2 [5] = target: T3, human GABAA α1β2γ2; test: biochemical
human GABAA α3β2γ2 [6] = target: T4, human GABAA α3β2γ2 (Homo sapiens, UniProt P18507+P34903); test: biochemical
human GABAA α5β2γ2 [7] = target: T2, human GABAA α5β2γ2; settings: Ki α5β2γ2 / Ki α2β2γ2
human GABAA α2β2γ2 [8] = target: T1, human GABAA α2β2γ2; test: biochemical
human GABAA α3β2γ2 [9] = target: T4, human GABAA α3β2γ2; settings: Ki α3β2γ2 / Ki α2β2γ2
[10] = target: human GABAA-receptor complexes α1β2γ2, α2β2γ2, α3β2γ2, α5β2γ2
[11] = tested on: PTZ and audiogenic-induced seizures; design: method as in PMID 10816315; settings: PTZ and audiogenic-induced seizures in mice; cited from earlier work
human GABAA α3β2γ2 [12] = target: T4, human GABAA α3β2γ2
[13] = cited from earlier work
[14] = tested on: refractory epilepsy patients; design: method as in PMID 3828198; settings: dosages giving concentrations similar to those after clobazam dosing; cited from earlier work
human GABAA α2β2γ2 [15] = target: T1, human GABAA α2β2γ2; remark: listed apart in the source
human GABAA α5β2γ2 [16] = target: T2, human GABAA α5β2γ2
[17] = tested on: tonic convulsions following PTZ administration; design: method as in PMID 11021797; settings: cited from earlier work; for percentage of mice convulsing: 3 mg/kg
[18] = tested on: pentylenetetrazole (PTZ)-induced seizures; design: method as in PMID 17092983; settings: greatest diazepam dosage, cited from earlier work

T2 sequence (P31644 32-462): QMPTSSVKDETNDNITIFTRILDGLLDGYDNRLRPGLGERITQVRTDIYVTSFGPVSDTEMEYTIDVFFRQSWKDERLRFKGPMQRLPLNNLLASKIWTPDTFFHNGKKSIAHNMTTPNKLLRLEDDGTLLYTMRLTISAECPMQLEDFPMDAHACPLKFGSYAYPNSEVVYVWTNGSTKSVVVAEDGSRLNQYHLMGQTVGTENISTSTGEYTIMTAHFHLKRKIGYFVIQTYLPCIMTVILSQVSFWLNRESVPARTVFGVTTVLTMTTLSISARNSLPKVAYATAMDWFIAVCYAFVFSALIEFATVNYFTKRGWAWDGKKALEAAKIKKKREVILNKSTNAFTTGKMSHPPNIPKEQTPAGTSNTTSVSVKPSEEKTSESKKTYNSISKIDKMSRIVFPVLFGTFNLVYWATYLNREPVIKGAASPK
T2 sequence (P47870 25-512 partner limits assumed): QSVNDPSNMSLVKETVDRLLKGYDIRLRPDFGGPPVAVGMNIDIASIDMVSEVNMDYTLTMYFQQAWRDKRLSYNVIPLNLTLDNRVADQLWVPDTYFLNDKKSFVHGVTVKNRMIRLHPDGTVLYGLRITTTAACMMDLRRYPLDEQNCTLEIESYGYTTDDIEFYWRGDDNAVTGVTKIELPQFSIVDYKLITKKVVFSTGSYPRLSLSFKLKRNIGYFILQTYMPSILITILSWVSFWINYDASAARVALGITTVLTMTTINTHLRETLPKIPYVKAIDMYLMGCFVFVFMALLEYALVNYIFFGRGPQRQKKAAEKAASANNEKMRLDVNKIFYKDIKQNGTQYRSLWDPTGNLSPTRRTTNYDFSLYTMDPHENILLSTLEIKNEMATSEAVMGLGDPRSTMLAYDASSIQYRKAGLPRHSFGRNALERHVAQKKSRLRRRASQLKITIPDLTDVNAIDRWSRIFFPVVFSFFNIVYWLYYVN
T2 sequence (P18507 40-475): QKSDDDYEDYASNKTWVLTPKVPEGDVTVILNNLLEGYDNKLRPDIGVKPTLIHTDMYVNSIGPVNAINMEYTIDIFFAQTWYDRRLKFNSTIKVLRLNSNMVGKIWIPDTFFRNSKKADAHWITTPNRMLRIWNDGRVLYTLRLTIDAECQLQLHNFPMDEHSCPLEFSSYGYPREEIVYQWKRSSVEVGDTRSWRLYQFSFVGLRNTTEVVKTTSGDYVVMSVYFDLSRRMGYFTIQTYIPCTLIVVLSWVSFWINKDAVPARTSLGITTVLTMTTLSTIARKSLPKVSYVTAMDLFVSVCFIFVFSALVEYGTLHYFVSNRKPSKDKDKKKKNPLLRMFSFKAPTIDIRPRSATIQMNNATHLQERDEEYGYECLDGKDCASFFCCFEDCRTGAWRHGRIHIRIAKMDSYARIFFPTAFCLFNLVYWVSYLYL
T3 sequence (P14867 28-456): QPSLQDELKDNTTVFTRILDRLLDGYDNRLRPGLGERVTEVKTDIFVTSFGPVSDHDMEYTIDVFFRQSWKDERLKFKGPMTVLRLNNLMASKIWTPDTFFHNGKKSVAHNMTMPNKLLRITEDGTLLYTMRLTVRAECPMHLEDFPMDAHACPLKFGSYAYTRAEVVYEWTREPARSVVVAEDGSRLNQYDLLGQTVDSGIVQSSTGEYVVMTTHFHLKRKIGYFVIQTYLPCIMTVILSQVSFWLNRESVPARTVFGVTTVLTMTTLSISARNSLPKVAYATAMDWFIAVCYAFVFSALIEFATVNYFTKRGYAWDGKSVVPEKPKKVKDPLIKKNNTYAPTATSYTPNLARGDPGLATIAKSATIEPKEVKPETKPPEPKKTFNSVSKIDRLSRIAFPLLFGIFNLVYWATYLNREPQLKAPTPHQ
T3 sequence (P47870 25-512 partner limits assumed): as the sequence (P47870 25-512 partner limits assumed) above
T3 sequence (P18507 40-475): as the sequence (P18507 40-475) above
T1 sequence (P47869 29-451): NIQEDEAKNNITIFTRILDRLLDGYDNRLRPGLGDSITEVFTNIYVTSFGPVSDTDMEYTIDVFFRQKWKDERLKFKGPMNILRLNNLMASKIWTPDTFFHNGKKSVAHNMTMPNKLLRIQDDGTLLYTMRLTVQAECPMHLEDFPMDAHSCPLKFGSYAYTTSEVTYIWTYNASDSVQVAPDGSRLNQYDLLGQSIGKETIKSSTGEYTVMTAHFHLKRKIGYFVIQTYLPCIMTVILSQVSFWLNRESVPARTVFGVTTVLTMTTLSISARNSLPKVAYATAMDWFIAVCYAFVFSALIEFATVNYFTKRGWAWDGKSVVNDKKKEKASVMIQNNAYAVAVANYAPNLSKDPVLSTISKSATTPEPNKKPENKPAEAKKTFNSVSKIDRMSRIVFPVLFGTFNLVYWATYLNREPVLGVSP
T1 sequence (P47870 25-512 partner limits assumed): as the sequence (P47870 25-512 partner limits assumed) above
T1 sequence (P18507 40-475): as the sequence (P18507 40-475) above
T4 sequence (P34903 29-492): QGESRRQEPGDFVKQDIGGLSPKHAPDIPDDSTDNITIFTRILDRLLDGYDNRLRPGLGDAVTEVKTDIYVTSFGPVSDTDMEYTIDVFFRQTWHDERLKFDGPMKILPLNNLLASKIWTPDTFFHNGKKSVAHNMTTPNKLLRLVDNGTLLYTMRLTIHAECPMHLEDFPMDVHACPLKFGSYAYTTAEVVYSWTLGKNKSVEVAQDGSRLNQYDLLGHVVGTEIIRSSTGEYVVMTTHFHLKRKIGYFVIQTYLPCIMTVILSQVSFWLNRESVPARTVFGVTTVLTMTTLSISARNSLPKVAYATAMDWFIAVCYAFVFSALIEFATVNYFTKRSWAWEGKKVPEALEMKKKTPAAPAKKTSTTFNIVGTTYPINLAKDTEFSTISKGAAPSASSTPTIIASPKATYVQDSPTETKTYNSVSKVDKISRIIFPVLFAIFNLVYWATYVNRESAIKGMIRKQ
T4 sequence (P47870 25-512 partner limits assumed): as the sequence (P47870 25-512 partner limits assumed) above
T4 sequence (P18507 40-475): as the sequence (P18507 40-475) above

SMILES: CN1C(=O)CC(=O)N(c2ccccc2)c2cc(Cl)ccc21 [Clobazam]
- Binding affinity normalized to GABAA α2 (ratio of Ki values) (human GABAA α2β2γ2 [1]): 1
- Ki (human GABAA α5β2γ2 [2]): 331 nM
- Ki [3]: 151 nM
- Binding affinity normalized to GABAA α2 (ratio of Ki values) (human GABAA α1β2γ2 [4]): 2.5
- Ki (human GABAA α1β2γ2 [5]): 519 nM
- Ki (human GABAA α3β2γ2 [6]): 753 nM
- Binding affinity normalized to GABAA α2 (ratio of Ki values) (human GABAA α5β2γ2 [7]): 1.6
- Ki (human GABAA α2β2γ2 [8]): 205 nM
- Binding affinity normalized to GABAA α2 (ratio of Ki values) (human GABAA α3β2γ2 [9]): 3.7

SMILES: O=C1CN=C(c2ccccc2Cl)c2cc([N+](=O)[O-])ccc2N1 [Clonazepam]
- Binding affinity normalized to GABAA α2 (ratio of Ki values) (human GABAA α2β2γ2 [1]): 1
- Ki (human GABAA α5β2γ2 [2]): 0.78 nM
- Ki [3]: 0.263 nM and 0.26 nM
- Binding affinity normalized to GABAA α2 (ratio of Ki values) (human GABAA α1β2γ2 [4]): 0.9
- Ki (human GABAA α1β2γ2 [5]): 0.65 nM
- Ki (human GABAA α3β2γ2 [6]): 2.24 nM
- Binding affinity normalized to GABAA α2 (ratio of Ki values) (human GABAA α5β2γ2 [7]): 1.1
- Ki (human GABAA α2β2γ2 [8]): 0.72 nM
- Ki [10]: 0.65 to 2.2 nM

SMILES: Cn1ncnc1COc1nn2c(-c3cc(F)ccc3F)nnc2cc1C(C)(C)C [L-838,417]
- anticonvulsant activity [11]: retains anticonvulsant activity

SMILES: O=C1CC(=O)N(c2ccccc2)c2cc(Cl)ccc2N1 [N-desmethylclobazam]
- Binding affinity normalized to GABAA α2 (ratio of Ki values) (human GABAA α2β2γ2 [1]): 1
- Ki (human GABAA α3β2γ2 [12]): 661 nM and 668 nM
- Ki [3]: 132 nM and 133 nM
- Ki (human GABAA α1β2γ2 [4]): 631 nM and 634 nM
- Binding affinity normalized to GABAA α2 (ratio of Ki values) (human GABAA α1β2γ2 [4]): 4.3
- half-life ([13]; humans): 79 h
- concentration of N-CLB relative to the parent compound ([13]; prolonged clinical use of CLB): more than 2 fold
- patients responding favorably [14]: 8 of 9
- Ki (human GABAA α2β2γ2 [15]): 148 nM and 147 nM
- Binding affinity normalized to GABAA α2 (ratio of Ki values) (human GABAA α5β2γ2 [7]): 2.0
- Ki (human GABAA α5β2γ2 [16]): 295 nM and 292 nM
- Binding affinity normalized to GABAA α2 (ratio of Ki values) (human GABAA α3β2γ2 [9]): 4.6

SMILES: Cc1ccc(-c2nc3ccc(C)cn3c2CC(=O)N(C)C)cc1 [Zolpidem]
- Ki (human GABAA α5β2γ2 [2]): 5430 nM
- Ki [10]: 30 to 5430 nM

SMILES: CN1C(=O)CN=C(c2ccccc2F)c2cc([N+](=O)[O-])ccc21 [^3H-flunitrazepam]
- Kd ([3]; read-out: Kd (tracer equilibrium dissociation constant), saturation binding, rat-brain homogenates): 1.5 ± 0.2 nM

SMILES: CN1C(=O)CN=C(c2ccccc2)c2cc(Cl)ccc21 [diazepam]
- percentage of mice convulsing ([17]; wild-type mice): approximately 20%
- percentage of mice convulsing ([17]; α2(H101R) mice): approximately 50%
- protection from tonic convulsions ([17]; 10 and 30 mg/kg, both wild-type and α2(H101R) mice): 100%
- seizure level on the Racine scale ([18]; wild-type mice, reversed from 6): 1
- seizure scoring on the Racine scale ([18]; α2(H101R) mice): approximately 3.5
